The text below walks through data of patent US20220339416A1, “SILK FIBROIN-BASED MICRONEEDLES AND USES THEREOF” (VAXESS TECHNOLOGIES, INC., priority 2019, published 2022).

In assay [1] the test system is B16-F10 mouse melanoma tumor. As to the kind of experiment: Daily vs single bolus intratumoral administration in B16-F10 mouse melanoma tumor model. Format: in vivo. The conditions noted are these: anti-PD1 mAb 100 ug i.p. Day 4 and 9.
Description: Mouse melanoma cells (B16-F10) are to be injected into the flank (right side) of mice (C57Bl/6) and a tumor is to be allowed to form. The agent will be administered intratumorally or peritumorally (i.e., intradermally or subcutaneously) either as: • 1. a single bolus, • 2. a series of fractional injections where the total dose given over the time frame is equivalent to the single bolus. These injections may be given daily or every other day. • 3. a silk microneedle patch formulated with the one or more therapeutic agents.
Tumor growth will be measured two to three times weekly. Animals will be euthanized when humane endpoints have been reached. These endpoints include weight loss >15%, body condition score <1, tumor volume >1 cm^3, tumor length (defined as the longest dimension) >1.5 cm, or tumor ulceration/necrosis. These humane endpoints apply to all in vivo experiments using the melanoma model.
According to the methods outlined above, daily intratumoral administration was compared to single intratumoral bolus doses, with IL-2 or gemcitabine, using a B16-F10 mouse melanoma tumor model. For this study, two cycles of treatment were performed, including a bolus administration on Day 7 and on Day 21, and daily administration on Days 7-11 and Days 21-25. […] On Day 0, mice were inoculated by subcutaneous administration of B16-F10 cells. […]
In a further assay the test system is CT26 colon carcinoma. As to the kind of experiment: Daily vs single bolus intratumoral administration in murine CT26 colon carcinoma model. Format: in vivo, mouse. The following applies: daily intratumoral 95 μg days 7-11 compared to single bolus 475 μg day 7; anti-PD1 mAb 100 μg i.p. day 4 and 9. On the procedure: Daily intratumoral administration compared to single intratumoral bolus doses was further investigated using gemcitabine in a murine CT26 colon carcinoma model (see FIG. 7A-7B). On day 0, mice were inoculated by subcutaneous administration of CT26 cells. On day 4 and day 9, mice were administered a dose of an anti-PD1 mAb (100 μg per dose) by intraperitoneal injection. Data was pooled from two experiments, with 10 mice per group.
CT26 mice in the ‘single bolus dose’ group received a single bolus dose of gemcitabine (475 μg) (intratumoral) at day 7, and four doses of saline (intratumoral) for the next four days (FIG. 7A). CT26 mice in the ‘daily dose’ group received daily doses of gemcitabine (95 μg) (intratumoral) over days 7-11 (5 total doses) (FIG. 7B). Each daily doses was a fractional dose equivalent to approximately ⅕ of the single bolus dose.

As to `Nc1ccn([C@@H]2O[C@H](CO)[C@@H](O)C2(F)F)c(=O)n1` [gemcitabine], in assay [1] (daily intratumoral doses (Days 7-11 and 21-25) compared to single bolus doses (Day 7 and 21)), the “survival (Kaplan-Meier curve)” value is “greater survival”. For the same molecule, the “tumor burden, as determined by tumor volume over time” value in assay [1] (daily intratumoral doses (Days 7-11 and 21-25, each 1/5 of bolus) compared to single bolus doses (Day 7 and 21)) is listed as “lower tumor burden”. Also, in the assay with CT26 colon carcinoma, the “overall survivability (Kaplan-Meier survival curve)” value was “greater than the bolus dose group” and the “tumor burden (tumor volume over time)” value was “lower tumor burden”.
